The values that follow come from US4521428A, “Anorexigenic trifluoromethylphenyltetrahydropyridines and pharmaceutical compositions containing them” (Sanofi, priority 1982, dated 1985).

Read-outs that look alike come from different tables or passages of the source.

Series [1] deals with cerebral serotonin. Briefly: cerebral rates of serotonin compared to controls, according to Curzon and Green. It counts as in vivo. Particulars: for cerebral rates of serotonin, % compared to controls: two hours after administration. From the text: Table II hereinbelow summarizes the percent cerebral rates of serotonin, compared to the controls, after intraperitoneal or oral administration of four representative compounds of the present invention. The determination of the cerebral rates, according to Curzon and Green (Br. J. Pharmacol. 1970, 39, 653) was made two hours after the administration. Fenfluramine was used as reference compound.

A short description of series [2]: acute toxicity in the rat (LD50) by the oral or intraperitoneal route. Particulars: in vivo; for selectivity ratio: read-out: A/B (LD50/ID50, therapeutic index). The source says: the acute toxicity, expressed as LD50 in the rat by the oral or intraperitoneal route (A);
the ratio between the acute toxicity and the anorectic activity which expresses the therapeutic index related to the acute toxicity (A/B).

The test system of series [3] is food intake (female rats). Briefly: anorectic activity by the food intake method in the rat. The note with it: food taken in first hour, read-out: ID50 (dose inhibiting by 50% the food intake). It counts as in vivo. As to the method:
The anorectic activity was assessed by the food intake method in the rat. Female rats weighing 200 g are used, which were trained for 10 days to eat during a period of 4 hours and selected on the eighth day. At the end of the tenth day, the randomised animals were divided into a "control group" treated with the vehicle alone, and into several "treated groups". The treatment was effected by intraperitoneal or by oral route 30 minutes or 1 hour, respectively, before the presentation of the food and the amount of food taken in the course of the first hour was then measured.
the anorectic activity, expressed as oral or intraperitoneal dose inhibiting by 50% the food intake (ID50, B);

Another series has as its system serotonin release. The note with it: central neurons; cited from earlier work.
Series [4] deals with cerebral serotonin. The note with it: doses very close to the anorectic dose; Arch. Intern. Pharmacodyn. Ther. 1967; cited from earlier work.
Another series has as its system central nervous system. The note with it: in vivo; cited from earlier work.
The next series deals with cerebral noradrenaline. The note with it: cited from earlier work.
Setting [5] is: ip, 1 h, i.p., 30 minutes before food.

Regarding `Cl.FC(F)(F)c1cccc(C2=CCN(CCc3ccccn3)CC2)c1` [Example 1, 1-[2-(2-pyridyl)ethyl]-4-(3-trifluoromethylphenyl)-1,2,3,6-tetrahydropyridine hydrochloride], the “cerebral rates of serotonin, % compared to controls” value (“cerebral rates of serotonin, %” for short) with cerebral serotonin [1] (i.p., 1.625 mg/kg) is on record as 93 ± 7%; in the series with cerebral serotonin [1] (i.p., 3.25 mg/kg), 85 ± 1%; in the series on cerebral serotonin [1] (i.p., 7.5 mg/kg, °° P < 0.01), 98 ± 10%. In addition, the LD50 in series [2] (ip) worked out at 108 mg/kg; in series [2] (po, os), 195 mg/kg. The selectivity ratio in series [2] (ip) was 54.2; in series [2] (os), 56. Also, the ED50 in series [3] (setting [5]) was determined as 1.99 mg/kg; in series [3] (po, os, 1 hour before food), 3.49 mg/kg.
For `Cl.FC(F)(F)c1cccc(C2=CCN(CCc3cccnc3)CC2)c1` [Example 2, 1-[2-(3-pyridyl)ethyl]-4-(3-trifluoromethylphenyl)-1,2,3,6-tetrahydropyridine hydrochloride], in the series on cerebral serotonin [1] (os, 2.0 mg/kg), the “cerebral rates of serotonin, %” value amounted to 113 ± 5%. Further, the selectivity ratio in series [2] (os) amounted to 128. Moreover, in series [2] (po, os), the LD50 worked out at 227 mg/kg. For the same compound, in series [3] (po, os, 1 hour before food), the ED50 turned out to be 1.77 mg/kg.
For `Cl.FC(F)(F)c1cccc(C2=CCN(CCc3ccncc3)CC2)c1` [Example 3, 1-[2-(4-pyridyl)ethyl]-4-(3-trifluoromethylphenyl)-1,2,3,6-tetrahydropyridine hydrochloride], the selectivity ratio in series [2] (os) stood at 49.6. In addition, the 50% lethal dose (LD50) in series [2] (po, os) came out at 289 mg/kg. For the same compound, the ED50 in series [3] (po, os, 1 hour before food) amounted to 5.82 mg/kg.
Turning to `Cc1cccc(CCN2CC=C(c3cccc(C(F)(F)F)c3)CC2)n1.Cl` [Example 4, 1-[2-(6-methyl-2-pyridyl)ethyl]-4-(3-trifluoromethylphenyl)-1,2,3,6-tetrahydropyridine hydrochloride], in the series on cerebral serotonin [1] (os, 5.69 mg/kg), the “cerebral rates of serotonin, %” value was found to be 119 ± 6%. In addition, the selectivity ratio in series [2] (os) came to 35.6. The compound also came in with a median lethal dose (LD50) in series [2] (po, os) of 202 mg/kg. Further, in series [3] (po, os, 1 hour before food), the ED50 came out at 5.69 mg/kg.
Take `Cl.[O-][n+]1ccc(CCN2CC=C(c3cccc(C(F)(F)F)c3)CC2)cc1` [Example 5, 4-[2-[4-(3-trifluoromethylphenyl)-1,2,3,6-tetrahydropyrid-1-yl]ethyl]pyridine 1-oxide hydrochloride]: in series [2] (os), the selectivity ratio was around 176. Besides, the LD50 in series [2] (po, os) is around 300 mg/kg. Besides, in series [3] (po, os, 1 hour before food), the ED50 worked out at 1.71 mg/kg.
As to `Cl.FC(F)(F)c1cccc(C2=CCN(CCc3cccc4ccccc34)CC2)c1` [Example 6, 1-[2-(1-naphthyl)ethyl]-4-(3-trifluoromethylphenyl)-1,2,3,6-tetrahydropyridine hydrochloride], in series [2] (os), the selectivity ratio was above 126. This compound displayed an LD50 in series [2] (po, os) above 600 mg/kg. Moreover, the ED50 in series [3] (po, os, 1 hour before food) was found to be 4.75 mg/kg.
For `Cl.FC(F)(F)c1cccc(C2=CCN(CCc3ccc4ccccc4c3)CC2)c1` [Example 7, 1-[2-(2-naphthyl)ethyl]-4-(3-trifluoromethylphenyl)-1,2,3,6-tetrahydropyridine hydrochloride], the selectivity ratio in series [2] (os) was above 76.6. The compound further yielded a median lethal dose (LD50) in series [2] (po, os) above 800 mg/kg. For the same compound, the ED50 in series [3] (po, os, 1 hour before food) is 10.4 mg/kg.
For `CCNC(C)Cc1cccc(C(F)(F)F)c1` (stereo not drawn) [Fenfluramine, reference compound], the “cerebral serotonin depletion/reduction” value in the series with cerebral serotonin [1] (in vivo) was “significant reduction of the cerebral serotonin”. Also, the LD50 in series [2] (ip) worked out at 102 mg/kg; in series [2] (po, os) it was 231 mg/kg. In addition, in the series on serotonin release, the “serotonin release (background)” value is listed as “release of the endogenous serotonin of the central neurons”. Besides, the “cerebral rates of serotonin (background)” value with cerebral serotonin [4] is “significant reduction in the cerebral rates of serotonin”. Further, the ED50 came out at 1.58 mg/kg in series [3] (setting [5]) and 2.51 mg/kg in series [3] (po, os, 1 hour before food). Moreover, in the series on central nervous system, the “anorectic activity (background)” value is given as “excellent anorectic activity”. The “sedative/stimulant action (background)” value in the series with central nervous system is recorded as “some sedative action”.
As for `CC(N)Cc1ccccc1` (stereo not drawn) [amphetamine], the “noradrenaline release mediating anorexia (background)” value in the series with cerebral noradrenaline is “seems to be mediated by the release of cerebral noradrenaline”.

As usually defined, the LD50 is the dose expected to kill half of the subjects tested. A higher LD50 goes with a less toxic substance.
